Reference: patent publication US20020025940A1, “Methods and compositions for sensitive and rapid, functional identification of genomic polynucleotides and use for cellular assays in drug discovery” (Aurora Biosciences Corporation, priority 1997, published 2002)

Key:
[1] = test system: repressed BLEC Jurkat clones; assay: Characterization of repressed BLEC Jurkat clones, relative repression of beta-lactamase; assay type: cell-based, human; conditions: PHA 10 microgram/ml, CsA 100 nM, PMA 8 nM, Thaps 1 microM
Source text: These clones represent cells in which the BLEC trapping construct had integrated into a gene down regulated by PHA (T-cell) activation. Thus, these cells report the transcriptional repression of a gene upon cellular activation. Individual clones were identified and isolated by FACS using CCF2/AM to detect beta-lactamase activity using the following repressed sorting paradigm.
A first sort was used to isolate a population of cells that constitutively express beta-lactamase by identifying and isolating a population of blue cells from an unstimulated population of BLEC transfected Jurkat cells contacted with CCF2/AM. The sorted population of cells represented 2.89% of the unsorted population. These cells were cultured, divided into two pools, and stimulated with one of two different stimuli, either 10 micrograms/ml PHA for 18 hours, or 8 nM PMA and 1 microM Thapsigargin for 18 hours. These stimulated cells were contacted with CCF2 (loading in the presence of 400 PET (4% weight/volume) and Pluoronic 128 (100 micrograms/ml)) and the green cells in the population were sorted using FACS. The sorted population represented 8.41% of the cell population prior to the second sort. The third round of FACS was for single blue unstimulated cells. The population of cells obtained represented 18.2% of the cell population prior to the third sort.
This sorting procedure represents a 2,260-fold enrichment for PHA repressible clones. These clones have the beta-lactamase gene integrated into a gene that is down regulated by PHA stimulation of the cells. Six of 80 individual clones tested were repressed by PHA or PMA+Thapsigargin. All of these clones were confirmed to be independent integration events by genomic Southern analysis using a DNA probe encoding beta-lactamase.
Table 7 and Table 8 provide data similar to that provided in Table 5 for all of the clones obtained by the methods of Examples 5 to 7.

[2] = target: T1, M1 receptor (Homo sapiens, UniProt P11229); assay type: cell-based; conditions: cell line J389PT14/pcDNA3-M1; 30 μM Carbachol, 10 nM PHA; 6 hours; unstimulated = 1
T1 construct: expressed in transfected cells; host or cells: Jurkat-derived BLEC clone J389PT14, transiently transfected by electroporation with pcDNA3-M1
Description: For example, a calcium-sensitive clone was transfected with a Gq-type GPCR by electroporation. Cells from clone J389PT14 were transfected by electroporation with a plasmid (pcDNA3 (Invitrogen) or pcDNA3-M1 (pcDNA3 that can operably express M1 receptor) to make cell lines J389PTI4/pcDNA3 and J389PTI4/pcDNA3-Ml). […] Thus, the J389PTI4/pcDNA3 cell is a control cell. […] These cells were contacted with CCF-2 dye for another 90 minutes. The 460/530 ratio changes were measured in a Cytoflour (Series 4000 Model) (Perceptive Biosystems) fluorescence plate reader and correspond to reporter gene expression.

T1 sequence (P11229 whole entry): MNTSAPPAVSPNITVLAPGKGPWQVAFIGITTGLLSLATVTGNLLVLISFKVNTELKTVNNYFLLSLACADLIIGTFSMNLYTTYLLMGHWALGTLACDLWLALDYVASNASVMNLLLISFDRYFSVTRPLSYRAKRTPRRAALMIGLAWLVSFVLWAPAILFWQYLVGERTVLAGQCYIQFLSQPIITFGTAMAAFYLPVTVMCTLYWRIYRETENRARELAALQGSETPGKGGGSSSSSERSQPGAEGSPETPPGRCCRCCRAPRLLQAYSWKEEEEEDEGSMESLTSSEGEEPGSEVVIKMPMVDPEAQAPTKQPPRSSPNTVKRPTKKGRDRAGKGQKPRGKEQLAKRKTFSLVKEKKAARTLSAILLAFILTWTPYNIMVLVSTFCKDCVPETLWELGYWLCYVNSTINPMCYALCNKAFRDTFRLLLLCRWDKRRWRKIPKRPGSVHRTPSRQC

Question: Which “Relative repression of beta-lactamase in the indicated clone by the following activator” value (“Relative repression of beta-lactamase” for short) ([1]; clone 183/97pptr2) does the source give for phytohemaglutinin [PHA] here?
Answer: 10

Question: What about the “Relative repression of beta-lactamase” value ([1]; clone J83/97pptr1) of the same substance?
Answer: 90

Question: And the “Relative repression of beta-lactamase” value ([1]; clone J83/97pptr3)?
Answer: 10

Question: And the “Relative repression of beta-lactamase” value ([1]; clone J83/97pptr4)?
Answer: 60

Question: And the “Relative repression of beta-lactamase” value ([1]; clone J83/97pptr5)?
Answer: 50

Question: And the “Relative repression of beta-lactamase” value ([1]; clone J83/97pptr6)?
Answer: 70

Question: What about the “Relative expression of beta-lactamase in cells exposed to the indicated stimuli” value [2] of the same substance?
Answer: 13
